From patent publication US20110039847A1, “AMIDE DERIVATIVES AS SIRTUIN MODULATORS” (Sirtris Pharmaceuticals, Inc, priority 2007, published 2011)

Molecular target: T1, SIRT1 (Homo sapiens, UniProt Q96EB6)
T1 sequence (Q96EB6 1-747): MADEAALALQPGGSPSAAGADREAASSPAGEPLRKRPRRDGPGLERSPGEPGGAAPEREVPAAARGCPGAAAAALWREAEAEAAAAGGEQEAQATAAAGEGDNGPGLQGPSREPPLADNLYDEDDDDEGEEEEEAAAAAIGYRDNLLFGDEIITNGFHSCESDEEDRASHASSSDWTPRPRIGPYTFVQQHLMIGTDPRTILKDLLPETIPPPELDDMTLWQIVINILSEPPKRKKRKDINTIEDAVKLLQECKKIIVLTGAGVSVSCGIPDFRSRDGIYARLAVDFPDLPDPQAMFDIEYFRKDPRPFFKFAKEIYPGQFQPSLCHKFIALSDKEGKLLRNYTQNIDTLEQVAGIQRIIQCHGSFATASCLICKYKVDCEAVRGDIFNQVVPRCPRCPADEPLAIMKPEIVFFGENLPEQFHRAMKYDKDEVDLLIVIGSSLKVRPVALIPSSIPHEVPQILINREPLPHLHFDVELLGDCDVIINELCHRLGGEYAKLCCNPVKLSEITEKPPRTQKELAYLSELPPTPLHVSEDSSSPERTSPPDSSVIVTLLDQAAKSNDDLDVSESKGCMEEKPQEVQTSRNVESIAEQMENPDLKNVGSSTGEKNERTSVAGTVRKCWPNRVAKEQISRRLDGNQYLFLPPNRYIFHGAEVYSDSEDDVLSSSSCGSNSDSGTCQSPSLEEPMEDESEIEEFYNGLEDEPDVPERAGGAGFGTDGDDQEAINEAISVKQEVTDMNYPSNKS
Experiment: Mass spectrometry based SIRT1 deacetylation (activation) assay
Assay type: biochemical
Conditions: 0.5 μM peptide substrate, 120 μM βNAD+, 10 nM SIRT1, 25 min at 25° C.; for Emax: 25 min, read-out: % Fold Act. (percent maximum fold activation)
Text: A mass spectrometry based assay was used to identify modulators of SIRT1 activity. The mass spectrometry based assay utilizes a peptide having 20 amino acid residues as follows: Ac-EE-K(biotin)-GQSTSSHSK(Ac)NleSTEG-K(5TMR)-EE-NH2 (SEQ ID NO: 1) wherein K(Ac) is an acetylated lysine residue and Nle is a norleucine. The peptide is labeled with the fluorophore 5TMR (excitation 540 nm/emission 580 nm) at the C-terminus. The sequence of the peptide substrate is based on p53 with several modifications. In addition, the methionine residue naturally present in the sequence was replaced with the norleucine because the methionine may be susceptible to oxidation during synthesis and purification.
The mass spectrometry assay is conducted as follows: 0.5 μM peptide substrate and 120 μM βNAD^+ is incubated with 10 nM SIRT1 for 25 minutes at 25° C. in a reaction buffer (50 mM Tris-acetate pH 8, 137 mM NaCl, 2.7 mM KCl, 1 mM MgCl2, 5 mM DTT, 0.05% BSA). Test compounds may be added to the reaction as described above. […] After the 25 minute incubation with SIRT1, 10 μL of 10% formic acid is added to stop the reaction. Reactions are sealed and frozen for later mass spec analysis. Determination of the mass of the substrate peptide allows for precise determination of the degree of acetylation (i.e. starting material) as compared to deacetylated peptide (product).
A control for inhibition of sirtuin activity is conducted by adding 1 μL of 500 mM nicotinamide as a negative control at the start of the reaction (e.g., permits determination of maximum sirtuin inhibition). A control for activation of sirtuin activity is conducted using 10 nM of sirtuin protein, with 1 μL of DMSO in place of compound, to determine the amount of deacetylation of the substrate at a given timepoint within the linear range of the assay. This timepoint is the same as that used for test compounds and, within the linear range, the endpoint represents a change in velocity.
For the above assay, SIRT1 protein was expressed and purified as follows. […] The protein was expressed by induction with 1 mM IPTG as an N-terminal His-tag fusion protein at 18° C. overnight and harvested at 30,000×g. Cells were lysed with lysozyme in lysis buffer (50 mM Tris-HCl, 2 mM Tris[2-carboxyethyl]phosphine (TCEP), 10 μM ZnCl2, 200 mM NaCl) and further treated with sonication for 10 min for complete lysis. The protein was purified over a Ni-NTA column (Amersham) and fractions containing pure protein were pooled, concentrated and run over a sizing column (Sephadex S200 26/60 global). The peak containing soluble protein was collected and run on an Ion-exchange column (MonoQ). Gradient elution (200 mM-500 mM NaCl) yielded pure protein. This protein was concentrated and dialyzed against dialysis buffer (20 mM Tris-HCl, 2 mM TCEP) overnight. The protein was aliquoted and frozen at −80° C. until further use.

For `CCN(CCN(C)C)c1cc(C(=O)Nc2ccccc2-c2ncc(C(C)(C)C)o2)nc(-c2ccccc2)c1` [Compound 43], the EC1.5 was “A (EC1.5≦1 uM)” and the Emax was no less than 300%.

In the case of `CNCCN(C)c1cc(C(=O)Nc2ccccc2-c2nnc(-c3ccccc3)s2)nc(-c2ccccc2)c1` [Compound 44], the EC1.5 is reported as “A (EC1.5≦1 uM)” and the Emax is reported as no less than 300%.

In the case of `CN(C)CCN(C)c1cc(C(=O)Nc2ccccc2-c2nnc(C3CCC3)s2)nc(-c2ccccc2)n1` [Compound 45], the EC1.5 is reported as “A (EC1.5≦1 uM)” and the Emax is reported as 150 to 300%.

With `CNCCN(C)c1cc(C(=O)Nc2ccccc2-c2nnc(C3CCC3)s2)nc(-c2ccccc2)n1` [Compound 47] the EC1.5 was “A (EC1.5≦1 uM)” and the Emax was 150 to 300%.

`CN(C)CCNc1cc(C(=O)Nc2ccccc2-c2nnc(C3CCC3)s2)nc(-c2ccccc2)n1` [Compound 48] was tested, and the EC1.5 was “B (EC1.5>1 and ≦10 uM)” and the Emax was 150 to 300%.

`CN(C)CCNc1cc(C(=O)Nc2ccccc2-c2nnc(C3CCCC3)s2)nc(-c2ccccc2)n1` [Compound 49] was tested, and the EC1.5 was “B (EC1.5>1 and ≦10 uM)” and the Emax was 150 to 300%.

`CCN(CCN(C)C)c1cc(C(=O)Nc2ccccc2-c2nnc(C3CCCC3)s2)nc(-c2ccccc2)n1` [Compound 50] was tested, and the EC1.5 was “B (EC1.5>1 and ≦10 uM)” and the Emax was 150 to 300%.

In the case of `CCN(CCN(C)C)c1cc(C(=O)Nc2ccccc2-c2nnc(C3CCC3)s2)nc(-c2ccccc2)n1` [Compound 51], the EC1.5 is reported as “A (EC1.5≦1 uM)” and the Emax is reported as 150 to 300%.

With `CCc1nnc(-c2ccccc2NC(=O)c2cc(N(C)CCNC)nc(-c3ccccc3)n2)s1` [Compound 52] the EC1.5 was “A (EC1.5≦1 uM)” and the Emax was 150 to 300%.

With `CCc1nnc(-c2ccccc2NC(=O)c2cc(NCCN(C)C)nc(-c3ccccc3)n2)s1` [Compound 53] the EC1.5 was “B (EC1.5>1 and ≦10 uM)” and the Emax was 150 to 300%.

For `CCCc1nnc(-c2ccccc2NC(=O)c2cc(NCCN(C)C)nc(-c3ccccc3)n2)s1` [Compound 54], the EC1.5 was “B (EC1.5>1 and ≦10 uM)” and the Emax was 150 to 300%.

In the case of `CCc1nnc(-c2ccccc2NC(=O)c2cc(N(CC)CCN(C)C)nc(-c3ccccc3)n2)s1` [Compound 55], the EC1.5 is reported as “A (EC1.5≦1 uM)” and the Emax is reported as 150 to 300%.

In the case of `CCc1nnc(-c2ccccc2NC(=O)c2cc(N(C)CCN(C)C)nc(-c3ccccc3)n2)s1` [Compound 56], the EC1.5 is reported as “B (EC1.5>1 and ≦10 uM)” and the Emax is reported as 150 to 300%.

For `CCOC(=O)c1nnc(-c2ccccc2NC(=O)c2cc(N(C)CCN(C)C)nc(-c3ccccc3)n2)s1` [Compound 57], the EC1.5 was “C (EC1.5>10 uM)” and the Emax was less than 150%.

With `CN(C)CCNC(=O)c1nnc(-c2ccccc2NC(=O)c2cc(NCCN(C)C)nc(-c3ccccc3)n2)s1` [Compound 58] the EC1.5 was “A (EC1.5≦1 uM)” and the Emax was no less than 300%.

For `CCOC(=O)c1nnc(-c2ccccc2NC(=O)c2cc(N(CC)CCN(C)C)nc(-c3ccccc3)n2)s1` [Compound 59], the EC1.5 was “A (EC1.5≦1 uM)” and the Emax was 150 to 300%.

With `CC(C)Cc1nnc(-c2ccccc2NC(=O)c2cc(NCCN(C)C)nc(-c3ccccc3)n2)s1` [Compound 60] the EC1.5 was “A (EC1.5≦1 uM)” and the Emax was 150 to 300%.

For `CCCCc1nnc(-c2ccccc2NC(=O)c2cc(NCCN(C)C)nc(-c3ccccc3)n2)s1` [Compound 61], the EC1.5 was “B (EC1.5>1 and ≦10 uM)” and the Emax was less than 150%.

With `CCCCc1nnc(-c2ccccc2NC(=O)c2cc(N(CC)CCN(C)C)nc(-c3ccccc3)n2)s1` [Compound 62] the EC1.5 was “A (EC1.5≦1 uM)” and the Emax was 150 to 300%.

`CCN(CCN(C)C)c1cc(C(=O)Nc2ccccc2-c2ncc(C(C)(C)C)s2)nc(-c2ccccc2)n1` [Compound 63] was tested, and the EC1.5 was “A (EC1.5≦1 uM)” and the Emax was 150 to 300%.

For `CCN(CCN(C)C)c1cc(C(=O)Nc2ccccc2-c2ncc(-c3ccccc3)o2)nc(-c2ccccc2)n1` [Compound 64], the EC1.5 was “A (EC1.5≦1 uM)” and the Emax was 150 to 300%.

With `CCN(CCN(C)C)c1cc(C(=O)Nc2ccccc2-c2ncc(C(C)(C)C)o2)nc(-c2ccccc2)n1` [Compound 65] the EC1.5 was “B (EC1.5>1 and ≦10 uM)” and the Emax was 150 to 300%.

In the case of `CN(C)CCNc1cc(C(=O)Nc2ccccc2-c2nnc(C(N)=O)s2)nc(-c2ccccc2)n1` [Compound 66], the EC1.5 is reported as “A (EC1.5≦1 uM)” and the Emax is reported as 150 to 300%.

`NC(=O)c1nnc(-c2ccccc2NC(=O)c2cc(N3CCNCC3)nc(-c3ccccc3)n2)s1` [Compound 67] was tested, and the EC1.5 was “A (EC1.5≦1 uM)” and the Emax was 150 to 300%.

In the case of `CCN(CCN(C)C)c1cc(C(=O)Nc2ccccc2-c2cnc(-c3ccccc3)[nH]2)nc(-c2ccccc2)n1` [Compound 68], the EC1.5 is reported as “A (EC1.5≦1 uM)” and the Emax is reported as no less than 300%.

For `NC(=O)c1nnc(-c2ccccc2NC(=O)c2cc(N3CCN4CCC[C@H]4C3)nc(-c3ccccc3)n2)s1` [Compound 69], the EC1.5 was “A (EC1.5≦1 uM)” and the Emax was 150 to 300%.

With `CC(C)(C)c1cnc(-c2ccccc2NC(=O)c2cc(N3CCOCC3)cc(-c3ccccc3)n2)o1` [Compound 70] the EC1.5 was “A (EC1.5≦1 uM)” and the Emax was 150 to 300%.

In the case of `CCN(CCN(C)C)c1cc(C(=O)Nc2ccccc2-c2nnc(C(N)=O)s2)nc(-c2ccccc2)n1` [Compound 71], the EC1.5 is reported as “A (EC1.5≦1 uM)” and the Emax is reported as 150 to 300%.

For `CC(C)c1nnc(-c2ccccc2NC(=O)c2cc(NCCN(C)C)nc(-c3ccccc3)n2)s1` [Compound 72], the EC1.5 was “A (EC1.5≦1 uM)” and the Emax was no less than 300%.

`CN(C)CCNc1cc(C(=O)Nc2ccccc2-c2nnc(-c3ccccn3)s2)nc(-c2ccccc2)n1` [Compound 73] was tested, and the EC1.5 was “A (EC1.5≦1 uM)” and the Emax was no less than 300%.

In the case of `CCN(CCN(C)C)c1cc(C(=O)Nc2ccccc2-c2nnc(-c3ccccn3)s2)nc(-c2ccccc2)n1` [Compound 74], the EC1.5 is reported as “A (EC1.5≦1 uM)” and the Emax is reported as no less than 300%.

In the case of `CC(C)(C)c1cnc(-c2ccccc2NC(=O)c2cc(OC[C@@H](O)CO)cc(-c3ccccc3)n2)s1` [Compound 75], the EC1.5 is reported as “B (EC1.5>1 and ≦10 uM)” and the Emax is reported as no less than 300%.

In the case of `CC(C)(C)c1cnc(-c2ccccc2NC(=O)c2cc(OC[C@@H](O)CO)cc(-c3ccccc3)n2)o1` [Compound 76], the EC1.5 is reported as “B (EC1.5>1 and ≦10 uM)” and the Emax is reported as no less than 300%.

`CN(C)CCNc1cc(C(=O)Nc2ccccc2-c2nnc(-c3cccnc3)s2)nc(-c2ccccc2)n1` [Compound 77] was tested, and the EC1.5 was “A (EC1.5≦1 uM)” and the Emax was no less than 300%.

In the case of `CN(C)CCNc1cc(C(=O)Nc2ccccc2-c2nnc(-c3ccncc3)s2)nc(-c2ccccc2)n1` [Compound 78], the EC1.5 is reported as “A (EC1.5≦1 uM)” and the Emax is reported as no less than 300%.

In the case of `CCCc1nnc(-c2ccccc2NC(=O)c2cc(N(CC)CCN(C)C)nc(-c3ccccc3)n2)s1` [Compound 79], the EC1.5 is reported as “A (EC1.5≦1 uM)” and the Emax is reported as no less than 300%.

For `CCN(CCN(C)C)c1cc(C(=O)Nc2ccccc2-c2nnc(CC(C)C)s2)nc(-c2ccccc2)n1` [Compound 80], the EC1.5 was “B (EC1.5>1 and ≦10 uM)” and the Emax was 150 to 300%.

In the case of `CCN(CCN(C)C)c1cc(C(=O)Nc2ccccc2-c2nnc(-c3cccnc3)s2)nc(-c2ccccc2)n1` [Compound 81], the EC1.5 is reported as “A (EC1.5≦1 uM)” and the Emax is reported as no less than 300%.

`CCN(CCN(C)C)c1cc(C(=O)Nc2ccccc2-c2nnc(-c3ccncc3)s2)nc(-c2ccccc2)n1` [Compound 82] was tested, and the EC1.5 was “A (EC1.5≦1 uM)” and the Emax was no less than 300%.
